Publication PMC5354814, “In silico and in vitro drug screening identifies new therapeutic approaches for Ewing sarcoma” (Oncotarget, 2016)
Read-outs that look alike come from different tables or passages of the source.

Columns and labels:
mouse lymphoma = test system: mouse lymphoma; design: method as in ref 18, ref 19; conditions: 313 to 700 ng/mL, in the presence of a rat liver microsomal preparation; cited from earlier work
[1] = design: method as in ref 19 (a number printed in a supplementary file, which may have a reference list of its own: not looked up in the article's list); conditions: dog, cited from earlier work
[2] = cited from earlier work; for grossly malformed fetuses: rabbits, days 6-18 of pregnancy
Rhesus monkey lung = test system: Rhesus monkey lung; design: method as in ref 19 (a number printed in a supplementary file, which may have a reference list of its own: not looked up in the article's list); conditions: 1.5 x 10^-4M; cited from earlier work
Rhesus monkey skin = test system: Rhesus monkey skin; design: method as in ref 19 (a number printed in a supplementary file, which may have a reference list of its own: not looked up in the article's list); conditions: 1.5 x 10^-4M; cited from earlier work
human monocyte = test system: human monocyte; design: method as in ref 19 (a number printed in a supplementary file, which may have a reference list of its own: not looked up in the article's list); conditions: 0.1 - 1.0 µg auranofin/mL; cited from earlier work
ovarian cancer = test system: ovarian cancer; design: method as in PMID 25502607; conditions: 3 mg auranofin orally twice per day, 10 patients, 95% CI: 1.3–3.8; cited from earlier work
[3] = design: method as in ref 19 (a number printed in a supplementary file, which may have a reference list of its own: not looked up in the article's list); conditions: cited from earlier work
[4] = design: method as in ref 19 (a number printed in a supplementary file, which may have a reference list of its own: not looked up in the article's list); conditions: dogs, 0.6 - 1.2 mg auranofin/kg p.o.; cited from earlier work
Salmonella = test system: Salmonella; design: method as in ref 18, ref 19; conditions: cited from earlier work
BALB/3T3 cell = test system: BALB/3T3 cell; design: method as in ref 18, ref 19; conditions: cited from earlier work
[5] = Formulation and PK studies of auranofin (blood gold, ICPMS); type: in vivo, BALB/c mice
Description: Ridaura® (auranofin) is typically delivered orally (capsules containing 3 mg auranofin) and has been repurposed in several clinical trials with limited results (i.e., clinicaltrials.gov identifier: NCT01419691, NCT02126527, and NCT02126527). […] Additionally, the ability to increase the dose of auranofin to achieve higher blood concentrations of gold was limited by dose-limiting gastrointestinal side effects (diarrhea, loose stools, nausea, vomiting and abdominal cramps). For our studies we dosed BALB/c mice orally at 10 mg/Kg with different formulations of auranofin suspensions prepared in 0.5% hydroxypropyl methyl cellulose to help assure dose uniformity. We compared the ground contents of Ridaura® capsules, the ground pure auranofin drug substance, auranofin suspension containing 0.5% sodium lauryl sulfate (a surfactant), auranofin suspensions with the pH adjusted to pH = 1, 4 and 7, auranofin suspension dosed into fasted versus high fat diet mice and finally a solution of auranofin prepared in 5% dimethyl sulfoxide (DMSO) with a pH = 1. Pharmacokinetic studies were conducted on all of these formulation variations. Blood samples from 3 mice at each time point (0, 1, 2, 4, 8, 12, 24, 48 and 96 hours) and the whole blood was assayed by ICPMS for gold.
We additionally studied dose accumulation of the gold by comparing a formulation of Ridaura® capsule contents as described above and dosing at 10 mg/Kg single dose versus dosing the mice once daily for 5 days. The PK study compared the gold content in whole blood samples as described above for the single dose versus the gold content in whole blood samples from the multidose arm with whole blood collected at the end of each 24 hour dosing period before the next dose (24, 48, 72, 96 and 120 hours) and then whole blood collected every 24 hours for 5 additional days (144, 168, 192, 216 and 240 hours) and assayed for gold content. The results of these formulation and PK studies are shown in Supplementary Table S2.
These findings led us to develop and assess injectable (i.v. and i.p.) formulations of auranofin. By defining maximum tolerated dose (MTD) following i.v. and i.p. administration of solution and suspension formulations of auranofin, our intent was to evaluate auranofin alone and in combination with ganetespib at MTD in mouse xenograft studies using the more convenient i.p. route of administration. Following administration of the solution formulation of auranofin i.v. and i.p., the maximum tolerated dose was estimated at 1 mg/kg and 6 mg/kg, respectively. Following a single i.p. suspension dose of auranofin, the maximum tolerated dose was 16 mg/kg. This dose was reduced to 12 mg/kg and dose tolerance was evaluated after 5 daily doses of auranofin suspension i.p. to determine the effects of the accumulation of gold in the blood due to the slow elimination of gold. Based on the i.p. suspension dose tolerance studies, the auranofin suspension formulation and dose level of 12 mg/kg was selected for evaluation in xenograft mouse studies.

mouse L929 fibroblasts = test system: mouse L929 fibroblasts; design: method as in ref 19 (a number printed in a supplementary file, which may have a reference list of its own: not looked up in the article's list); conditions: 1µM auranofin; cited from earlier work
[6] = cited from earlier work
[7] = Suspension, single 10 mg/kg Oral

For CC(=O)OC[C@H]1O[C@@H]([S-])[C@H](OC(C)=O)[C@@H](OC(C)=O)[C@@H]1OC(C)=O.CCP(CC)CC.[Au+] [Auranofin, auranofin], the mutation frequencies (mouse lymphoma) is given as “induced increases in the mutation frequencies”, the “absorption after oral dosing” value [1] is given as 26% and the “blood gold in plasma proteins” value [1] is given as 17%. For the same compound, the “blood gold in red blood cells” value [1] was 82%, the urinary excretion [1] was 16% and the elimination in feces ([1]; within 21 days) was 83%. The teratogenicity in rabbits ([2]; oral 0.5, 3 and 6 mg/kg/day) was “teratogenic potential”, the grossly malformed fetuses ([2]; 0.5 mg/kg/day (low)) was 1.9% and the grossly malformed fetuses ([2]; 3 mg/kg/day (middle)) was 4.7%. For the same compound, the grossly malformed fetuses ([2]; 6 mg/kg/day (high)) was 15.5%, the “anti-human IgE-induced release of histamine and SRS-A” value (Rhesus monkey lung) was “inhibition” and the histamine release (Rhesus monkey skin) was “inhibition”. For the same compound, the phagocytosis (human monocyte) was “inhibited”, the “median PFS” value (ovarian cancer) was 2.8 months and the tissue gold concentration ([3]; rat tissues) was “highest in the kidneys”. For the same compound, the “absorption after oral dosing” value ([3]; rat) was 19%, the “blood gold in plasma proteins” value ([3]; rat) was 35% and the “blood gold in red blood cells” value ([3]; rat) was 65%. The urinary excretion ([3]; rat) was 10%, the elimination in feces ([3]; single oral dose, within 21 days, rat) was 79% and the antidiuretic effect [4] was “not in dogs”. The mutation effects (Salmonella) was “no m utation effects”, the mutation effects (BALB/3T3 cell) was “no m utation effects” and the Cmax ([5]; Solution, five daily 4 mg/kg IP) was 10384 ng/mL. The “AUC (0 to ∞)” value ([5]; Solution, single 4 mg/kg IP) was 210.336 µg·h/mL, the Cmax ([5]; Solution, single 4 mg/kg IP) was 4071 ng/mL and the “Half Life” value ([5]; Solution, single 4 mg/kg IP) was 29.7 h. The Tmax ([5]; Solution, single 4 mg/kg IP) was 1 h, the Cmax ([5]; Suspension, five daily 10 mg/kg Oral) was 5780 ng/mL and the “AUC (0 to ∞)” value [5, 7] was 187.7 µg·h/mL. The Cmax [5, 7] was 3680 ng/mL, the “Half Life” value [5, 7] was 28.4 h and the Tmax [5, 7] was 24 h. For the same compound, the “AUC (0 to ∞)” value ([5]; Suspension, single 12 mg/kg IP) was 550.846 µg·h/mL, the Cmax ([5]; Suspension, single 12 mg/kg IP) was 13068 ng/mL and the “Half Life” value ([5]; Suspension, single 12 mg/kg IP) was 26.4 h. The Tmax ([5]; Suspension, single 12 mg/kg IP) was 1 h, the “effect of oral formulation variations on amount of gold absorbed” value ([5]; oral 10 mg/kg, various suspensions and a solution) was “unable to alter the amount of auranofin (gold) absorbed” and the ADCC (mouse L929 fibroblasts) was “inhibited”. The “findings in pregnant rats” value ([6]; 2.5 mg/kg/day) was “No such effects were found”, the “findings in pregnant rats” value ([6]; 5 mg/kg/day) was “increase above controls in the inc idence of resorptions and a decrease in litter size” and the “perinatal and postnatal study findings, high dose group” value ([6]; female rats, 8 mg/kg/day, last trimester and lactation) was “An increase in fetal resorption”. The general reproductive performance ([6]; female rats, oral 0.25, 0.75 and 3.0 mg/kg/day) was “no adverse effect on estrous cyclicity” and the “litter size, birth weight or viability of the offspring” value ([6]; female rats, oral 0.5, 2.5 and 5 mg/kg/day, days 6-15 of pregnancy) was “no effect on litter size”.
